Results: patent US8148423B2, “Fluorophore compounds” (Versitech Limited, priority 2008, dated 2012)

Tests used:
[1] = Absorption spectra of rhodol fluorophores in phosphate buffer; type: physicochemical; settings: for εmax: 50 mM aqueous phosphate buffer at pH about 8.0; for Abs Max: 50 mM aqueous phosphate buffer at pH about 8.0, 25° C.
Description: (§1) The photophysical properties of the rhodol fluorophores in Table 1 were measured according to the procedures disclosed herein and are summarized in Table 1. Stock solutions were prepared by accurately weighting and dissolving about 5-10 mg of the rhodol fluorophores in Table 1 in acetonitrile (CH3CN). Absorbance solutions were prepared by further diluting the stock solution with 50 mM of potassium phosphate buffer at pH 8.0. Absorption spectra were recorded on a CARY 50 Bio UV-Visible spectrophotometer (obtainable from Varian Incorporation, Palo Alto, Calif.) under the control of a PC running the manufacturer supplied software package. Spectra were routinely acquired at 25° C., in 1 cm path length quartz cuvettes with a volume of 3.5 mL. Fluorescence spectra were recorded on a Hitachi F-2500 spectrofluorimeter (obtainable from Hitachi, Japan) under the control of a PC running the manufacturer supplied software package. Slit width was 2.5 nm for both the excitation spectrum and the fluorescence spectrum, and the photomultiplier voltage was […]. All spectra were corrected for emission intensity using the manufacturer-supplied photomultiplier curves. The quantum yields of the fluorophores may be estimated by comparison of the integrated area of the corrected emission spectrum of the sample with that of a reference solution, such as a solution of rhodamine 6 G in water (quantum efficiency 0.76). The concentration of the reference was adjusted to match the absorbance of the test sample.

[2] = Fluorescence spectra and quantum yield of rhodol fluorophores, rhodamine 6G as reference; type: physicochemical; settings: 50 mM aqueous phosphate buffer at pH about 8.0, N.D. = no fluorescence detected; for QY (quantum yield): relative to rhodamine 6G (QY = 0.76 in water)
Description: as §1

SMILES	εmax [1]	Abs Max [1]	Em Max [2] [nm]	QY (quantum yield) [2]
CCN(CC)c1ccc2c(c1)Oc1cc(O)ccc1C21OC(=O)c2ccccc21 (centres unmarked) [A=H, R1=Et, R2=Et]	47,000 cm^−1M^−1	522 nm	549	0.08
O=C1OC2(c3ccc(O)cc3Oc3cc(NCc4ccccc4)ccc32)c2ccccc21 (centres unmarked) [A=H, R1=H, R2=Bn]	71,000 cm^−1M^−1	503 nm	529	0.95
O=C(Nc1ccc2c(c1)Oc1cc(O)ccc1C21OC(=O)c2ccccc21)c1ccccc1 (centres unmarked) [A=H, R1=H, R2=COPh]		462/490	525	0.16
Nc1ccc2c(c1)Oc1cc(O)ccc1C21OC(=O)c2ccccc21 (centres unmarked) [A=H, R1=H, R2=H]	~70,000 cm^−1M^−1	493 nm	516	0.98
O=C1OC2(c3ccc(O)cc3Oc3cc(Nc4ccccc4)ccc32)c2ccccc21 (centres unmarked) [A=H, R1=H, R2=Ph]	55,000 cm^−1M^−1	513 nm		
O=C1OC2(c3ccc(O)cc3Oc3cc(N4CCCCC4)ccc32)c2ccccc21 (centres unmarked) [A=H, R1R2=CH2CH2CH2CH2CH2]	62,500 cm^−1M^−1	523 nm	555	0.03
CCCNc1ccc2c(c1)Oc1cc(OCOC)ccc1C21OC(=O)c2ccccc21 (centres unmarked) [A=MOM, R1=H, R2=n-Pr]		494 nm	532	0.35
COc1ccc2c(c1)Oc1cc(N)ccc1C21OC(=O)c2ccccc21 (centres unmarked) [A=Me, R1=H, R2=H]		477 nm	516	0.85

Continued, values first:

εmax [1]	Abs Max [1]	Em Max [2] [nm]	QY (quantum yield) [2]	SMILES
	462/490	524	0.19	C=CC(=O)Nc1ccc2c(c1)Oc1cc(O)ccc1C21OC(=O)c2ccccc21 (centres unmarked) [A=H, R1=H, R2=COCHCH2]
60,000 cm^−1M^−1	508 nm	533	0.90	CCCCNc1ccc2c(c1)Oc1cc(O)ccc1C21OC(=O)c2ccccc21 (centres unmarked) [A=H, R1=H, R2=n-Bu]
61,000 cm^−1M^−1	507 nm	531	0.94	CCCNc1ccc2c(c1)Oc1cc(O)ccc1C21OC(=O)c2ccccc21 (centres unmarked) [A=H, R1=H, R2=n-Pr]
64,000 cm^−1M^−1	518 nm	544	0.20	CN(C)c1ccc2c(c1)Oc1cc(O)ccc1C21OC(=O)c2ccccc21 (centres unmarked) [A=H, R1=Me, R2=Me]
63,000 cm^−1M^−1	525 nm	553	0.12	CCCCN(CCCC)c1ccc2c(c1)Oc1cc(O)ccc1C21OC(=O)c2ccccc21 (centres unmarked) [A=H, R1=n-Bu, R2=n-Bu]
	293 nm			COCOc1ccc2c(c1)Oc1cc(NC(=O)c3ccccc3)ccc1C21OC(=O)c2ccccc21 (centres unmarked) [A=MOM, R1=H, R2=COPh]
